# Results from patent publication US20180339016A1 (priority 2015, published 2018).
# Read-outs that look alike come from different tables or passages of the source.
# How the values were obtained:
# [1] = system: Escherichia coli (ATCC 25922); conditions: peptide alone; peptide concentration required to inhibit growth by 20% (so in the source)
# Description: (§1) The N-terminus of the peptides were acetylated and the C-terminus was amidated. The kinked structure can rapidly reduce the alpha-helical content, thereby greatly reducing the toxicity of the peptide against host cells. In addition, because of the potential to show specificity for the Gram-negative bacterial membrane, Pro-mutants were prepared by site-directed mutagenesis. Using the prepared peptides, their MIC for the Gram-negative bacterium E. coli and the Gram-positive bacterium S. aureus and their hemolytic activity for host cells were examined (Table 1).
# To measure the synergy between the membrane-activating peptides and the repositioning drug, a 10× compound was prepared, and then serially diluted ⅔-fold with distilled water. An MH broth (900 μl) was added to and mixed with the 10× compound (100 μl), and then 200 μL of the mixture was taken and added to a 96-well plate. E. coli cultured for one day was adjusted to 0.5 MCF using MCFarland, and diluted 10-fold, and then 10 μl of the dilution was added to each well of the plate (5×10^5 CFU/mL). After addition of the bacterial cells, plate was incubated at 37° C. for 18 hours, and then the OD value at UV-Vis (600 nm) was measured. Cell viability (%)=(OD600 of sample−OD600 of negative control)/(OD600 of positive control−OD600 of negative control)×100.
# [2] = system: Staphylococcus aureus (ATCC 29213); test: MIC of peptide against S. aureus; format: cell-based; conditions: peptide alone
# Description: as §1
# E. coli ATCC 25922 = conditions: for Fractional Inhibitory Concentration Index (FICI), Colistin & 1 μM peptide / MIC (μM) against E. coli ATCC 25922, Peptide alone: Table 4; for MIC (μM) against E. coli ATCC 25922, Peptide alone: bacterial growth <10% of control
# [3] = Table 13, Lys-Ala scanning library
Substance,MIC [μM] Against E. coli [1] [µM],MIC [μM] Against S. aureus [2] [µM],further results
LKKLPKLLKKLLKL [LK-L5P],5.0,20,
ALLKLLKKPLKLLK [KL-L9P/K1A],,,"FICI Against E. coli, Colistin & 1/2 MIC peptide (E. coli ATCC 25922; [3]): 0.71"
KALKLLKKPLKLLK [KL-L2AL9P],40,,"FICI Against E. coli, Colistin & 1/2 MIC peptide (E. coli ATCC 25922; Table 15, Leu-Ala scanning): 0.74; FICI Against E. coli, Colistin & 1/4 MIC peptide (E. coli ATCC 25922; Table 15, Leu-Ala scanning): 0.61"
LKKLPKLLKKPLKL [LK-L5PL11P],40,>40,
LKKPLKLPKKLLKL [LK-L4PL8P],40,>40,
KLLKLLPKLLKLLK [KL-K7P],2.5,5.0,
KLLALLKKPLKLLK [KL-L9P/K4A],,,"FICI Against E. coli, Colistin & 1/2 MIC peptide (E. coli ATCC 25922; [3]): 0.79"
LKKLLKPLKKLLKL [LK-L7P],2.5,20,
KLLKLLKKLLKLLK,20,20,
KLLKLLKPLLKLLK [KL-K8P],2.5,5.0,
KLLKLPKKLLKLLK [KL-L6P],10,>40,"Fractional Inhibitory Concentration Index (FICI), Colistin & 1 μM peptide (E. coli ATCC 25922): 0.83, Synergism; MIC (μM) against E. coli ATCC 25922, Peptide alone (E. coli ATCC 25922): 3 µM"
KLLKLLKKPAKLLK [KL-L9PL10A],40,,"increase of FICI value with colistin when peptide changed from 1/4 MIC to 1/2 MIC (E. coli ATCC 25922): 0.31; FICI Against E. coli, Colistin & 1/2 MIC peptide (E. coli ATCC 25922; Table 15, Leu-Ala scanning): 0.80; FICI Against E. coli, Colistin & 1/4 MIC peptide (E. coli ATCC 25922; Table 15, Leu-Ala scanning): 0.49"
LKKLLKLLKKPLKL [LK-L11P],5,>40,"Fractional Inhibitory Concentration Index (FICI), Colistin & 1 μM peptide (E. coli ATCC 25922): 0.83, Synergism; MIC (μM) against E. coli ATCC 25922, Peptide alone (E. coli ATCC 25922): 3 µM"
Ac-KLLKALKKPLKLLK-NH2 [KL-L5AL9P],18,,"increase of FICI value with colistin when peptide changed from 1/4 MIC to 1/2 MIC (E. coli ATCC 25922): 0.37; FICI Against E. coli, Colistin & 1/2 MIC peptide (E. coli ATCC 25922; Table 15, Leu-Ala scanning): 0.86; FICI Against E. coli, Colistin & 1/4 MIC peptide (E. coli ATCC 25922; Table 15, Leu-Ala scanning): 0.49"
LKKLLKLPKKPLKL [LK-L8PL11P],40,>40,
KLLKLLAKPLKLLK [KL-L9P/K7A],,,"FICI Against E. coli, Colistin & 1/2 MIC peptide (E. coli ATCC 25922; [3]): 0.86"
KLLKLLKKPLKLAK [KL-L9PL13A],40,,"increase of FICI value with colistin when peptide changed from 1/4 MIC to 1/2 MIC (E. coli ATCC 25922): 0.29; FICI Against E. coli, Colistin & 1/2 MIC peptide (E. coli ATCC 25922; Table 15, Leu-Ala scanning): 0.80; FICI Against E. coli, Colistin & 1/4 MIC peptide (E. coli ATCC 25922; Table 15, Leu-Ala scanning): 0.51"
LKKPLKLLKKPLKL [LK-L4PL11P],>40,>40,
KLPKLLKKLLKLLK [KL-L3P],10,20,
KLLKLLKKLPKLLK [KL-L10P],2.5,20,
